Target: T1, FBXO21 (Homo sapiens, UniProt O94952)
T1 sequence (O94952 1-628): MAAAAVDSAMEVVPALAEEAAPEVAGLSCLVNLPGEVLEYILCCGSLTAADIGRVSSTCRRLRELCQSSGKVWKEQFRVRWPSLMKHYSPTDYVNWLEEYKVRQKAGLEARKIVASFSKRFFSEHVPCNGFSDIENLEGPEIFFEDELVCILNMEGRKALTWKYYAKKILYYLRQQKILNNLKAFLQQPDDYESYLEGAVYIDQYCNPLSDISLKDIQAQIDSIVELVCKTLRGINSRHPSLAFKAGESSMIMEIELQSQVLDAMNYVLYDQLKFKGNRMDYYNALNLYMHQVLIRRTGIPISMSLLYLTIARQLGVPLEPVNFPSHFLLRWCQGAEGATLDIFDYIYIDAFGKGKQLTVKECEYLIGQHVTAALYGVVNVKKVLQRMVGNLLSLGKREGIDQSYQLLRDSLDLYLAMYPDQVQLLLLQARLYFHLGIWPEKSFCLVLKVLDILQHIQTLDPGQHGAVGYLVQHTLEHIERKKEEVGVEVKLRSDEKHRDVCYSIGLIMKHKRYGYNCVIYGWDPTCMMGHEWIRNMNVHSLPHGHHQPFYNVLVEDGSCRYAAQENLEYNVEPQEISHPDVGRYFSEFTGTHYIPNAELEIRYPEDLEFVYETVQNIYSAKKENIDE
Assay: in vitro ubiquitination of GFP-p85α, Western blot
Type: biochemical

IC50: 2.4 nM
Structure (SMILES): O=C(O)Cc1cc(-c2ccc(F)cc2)ccc1-c1ccc(F)cc1 [57-057]

Source: publication doi:10.1101/2024.12.13.628427v1 (biorxiv, 2024)
